In the NIST ThermoML archive (doi:10.1016/j.jct.2018.02.001):

Key:
[1] = 101.33 kPa, Liquid, Vibrating tube method
[2] = mn = molality of the nth substance listed, in mol/kg; settings: 100 kPa, Liquid, Vibrating tube method

CCCCn1cc[n+](CCCC)c1.[Br-] [1,3-dibutylimidazolium bromide]
[1]
Settings | mass density [kg/m3]
293.15 K | 1197.07
298.15 K | 1193.75
303.15 K | 1190.32
308.15 K | 1186.85
313.15 K | 1183.34
318.15 K | 1180.06
323.15 K | 1176.52

CCCCn1cc[n+](CCCC)c1.[Br-] [1,3-dibutylimidazolium bromide] + O
mass density [kg/m3], [2]
Settings | m1 = 0.01076 | m1 = 0.01516 | m1 = 0.02165 | m1 = 0.02575 | m1 = 0.03042 | m1 = 0.0354 | m1 = 0.04047
293.15 K | 998.64 | 998.84 | 999.13 | 999.32 | 999.54 | 999.77 | 1000
298.15 K | 997.46 | 997.65 | 997.93 | 998.11 | 998.31 | 998.52 | 998.74
303.15 K | 995.91 | 996.08 | 996.4 | 996.57 | 996.78 | 996.98 | 997.16
308.15 K | 994.12 | 994.3 | 994.63 | 994.79 | 995 | 995.2 | 995.35

CCn1cc[n+](CC)c1.[Br-] [1,3-diethyl-1H-imidazolium bromide]
[1]
Settings | mass density [kg/m3]
293.15 K | 1355.06
298.15 K | 1351.21
303.15 K | 1347.51
308.15 K | 1343.75
313.15 K | 1339.95
318.15 K | 1336.13
323.15 K | 1332.29

CCn1cc[n+](CC)c1.[Br-] [1,3-diethyl-1H-imidazolium bromide] + O
mass density [kg/m3], [2]
Settings | m1 = 0.01477 | m1 = 0.01845 | m1 = 0.02167 | m1 = 0.0271 | m1 = 0.03151 | m1 = 0.035 | m1 = 0.04375 | m1 = 0.04513 | m1 = 0.05018
293.15 K | 998.92 | 999.11 | 999.27 | 999.55 | 999.78 | 999.96 | 1000.42 | 1000.49 | 1000.75
298.15 K | 997.72 | 997.91 | 998.07 | 998.35 | 998.57 | 998.75 | 999.19 | 999.26 | 999.51
303.15 K | 996.18 | 996.36 | 996.52 | 996.8 | 997.03 | 997.2 | 997.63 | 997.7 | 997.94
308.15 K | 994.23 | 994.41 | 994.58 | 994.87 | 995.11 | 995.29 | 995.71 | 995.77 | 995.97

CCCCCCCCCCCC[n+]1ccn(CCCC)c1.[Br-] [1-butyl-3-dodecyl-1H-imidazolium bromide]
[1]
Settings | mass density [kg/m3]
293.15 K | 1059.3
298.15 K | 1055.99
303.15 K | 1052.6
308.15 K | 1049.18
313.15 K | 1045.73
318.15 K | 1042.27
323.15 K | 1038.83

CCCCCCCCCCCC[n+]1ccn(CCCC)c1.[Br-] [1-butyl-3-dodecyl-1H-imidazolium bromide] + O
mass density [kg/m3], [2]
Settings | 293.15 K | 298.15 K | 303.15 K
m1 = 0.0055 | 998.33 | 997.09 | 995.65
m1 = 0.0082 | 998.38 | 997.13 | 995.66
m1 = 0.0092 | 998.4 | 997.15 | 995.68
m1 = 0.0149 | 998.51 | 997.26 | 995.7
m1 = 0.0217 | 998.64 | 997.39 | 995.82
m1 = 0.0252 | 998.71 | 997.46 | 995.9
m1 = 0.0317 | 998.83 | 997.58 | 996
m1 = 0.0337 | 998.87 | 997.62 | 996.04
m1 = 0.0399 | 999 | 997.74 | 996.15
m1 = 0.0479 | 999.15 | 997.88 | 996.3
m1 = 0.0503 | 999.19 | 997.92 | 996.34

CCCC[n+]1ccn(CC)c1.[Br-] [1-butyl-3-ethylimidazolium bromide]
[1]
Settings | mass density [kg/m3]
293.15 K | 1263.23
298.15 K | 1259.4
303.15 K | 1255.95
308.15 K | 1252.45
313.15 K | 1248.92
318.15 K | 1245.45
323.15 K | 1241.93

CCCCCC[n+]1ccn(CCCC)c1.[Br-] [1-butyl-3-hexyl-1H-imidazolium bromide]
[1]
Settings | mass density [kg/m3]
293.15 K | 1148.8
298.15 K | 1145.49
303.15 K | 1142.11
308.15 K | 1138.66
313.15 K | 1135.17
318.15 K | 1131.7
323.15 K | 1128.22

CCCCCC[n+]1ccn(CCCC)c1.[Br-] [1-butyl-3-hexyl-1H-imidazolium bromide] + O
mass density [kg/m3], [2]
Settings | m1 = 0.0051 | m1 = 0.0109 | m1 = 0.01511 | m1 = 0.01999 | m1 = 0.02536 | m1 = 0.03025 | m1 = 0.03503 | m1 = 0.03996 | m1 = 0.0452 | m1 = 0.05
293.15 K | 998.4 | 998.6 | 998.8 | 999 | 999.22 | 999.42 | 999.62 | 999.82 | 1000.03 | 1000.23
298.15 K | 997.22 | 997.41 | 997.6 | 997.79 | 998.01 | 998.2 | 998.39 | 998.58 | 998.79 | 998.978
303.15 K | 995.73 | 995.88 | 996.06 | 996.24 | 996.44 | 996.64 | 996.82 | 997.01 | 997.21 | 997.38
308.15 K | 994.04 | 994.09 | 994.2 | 994.38 | 994.6 | 994.81 | 994.99 | 995.17 | 995.35 | 995.51

CCCCCCCC[n+]1ccn(CCCC)c1.[Br-] [1-butyl-3-octyl-1H-imidazolium bromide]
[1]
Settings | mass density [kg/m3]
293.15 K | 1123.09
298.15 K | 1119.72
303.15 K | 1116.27
308.15 K | 1112.79
313.15 K | 1109.25
318.15 K | 1105.74
323.15 K | 1102.23

CCCCCCCC[n+]1ccn(CCCC)c1.[Br-] [1-butyl-3-octyl-1H-imidazolium bromide] + O
mass density [kg/m3], [2]
Settings | m1 = 0.0055 | m1 = 0.01 | m1 = 0.015 | m1 = 0.0216 | m1 = 0.0285 | m1 = 0.0346 | m1 = 0.0412 | m1 = 0.0498
293.15 K | 998.38 | 998.55 | 998.75 | 999.02 | 999.32 | 999.58 | 999.85 | 1000.22
298.15 K | 997.16 | 997.36 | 997.53 | 997.77 | 998.04 | 998.28 | 998.54 | 998.88
303.15 K | 995.68 | 995.77 | 995.96 | 996.2 | 996.48 | 996.71 | 996.97 | 997.31
308.15 K | 994.05 | 994.08 | 994.1 | 994.32 | 994.61 | 994.83 | 995.08 | 995.4

CCCCCC[n+]1ccn(CC)c1.[Br-] [1-ethyl-3-hexyl-1H-imidazolium bromide] + O
mass density [kg/m3], [2]
Settings | m1 = 0.0092 | m1 = 0.012 | m1 = 0.0168 | m1 = 0.02 | m1 = 0.0248 | m1 = 0.0295 | m1 = 0.0358 | m1 = 0.0432 | m1 = 0.0495
293.15 K | 998.59 | 998.73 | 998.92 | 999.06 | 999.26 | 999.47 | 999.75 | 1000.07 | 1000.35
298.15 K | 997.35 | 997.48 | 997.66 | 997.79 | 998 | 998.2 | 998.48 | 998.8 | 999.08
303.15 K | 995.82 | 995.93 | 996.11 | 996.24 | 996.43 | 996.64 | 996.9 | 997.21 | 997.48
308.15 K | 994.05 | 994.09 | 994.21 | 994.33 | 994.51 | 994.7 | 994.96 | 995.26 | 995.51

CCCCCCCC[n+]1ccn(CC)c1.[Br-] [1-ethyl-3-octyl-1H-imidazolium bromide] + O
mass density [kg/m3], [2]
Settings | 293.15 K | 298.15 K | 303.15 K | 308.15 K
m1 = 0.0128 | 998.68 | 997.48 | 995.95 | 994.18
m1 = 0.0143 | 998.75 | 997.55 | 996.03 | 994.25
m1 = 0.0149 | 998.78 | 997.58 | 996.06 | 994.27
m1 = 0.0171 | 998.87 | 997.68 | 996.14 | 994.36
m1 = 0.0206 | 999.02 | 997.83 | 996.29 | 994.5
m1 = 0.0216 | 999.07 | 997.87 | 996.33 | 994.55
m1 = 0.026 | 999.25 | 998.06 | 996.51 | 994.71
m1 = 0.0313 | 999.47 | 998.28 | 996.73 | 994.91
m1 = 0.0355 | 999.65 | 998.45 | 996.91 | 995.08
m1 = 0.0377 | 999.74 | 998.54 | 997 | 995.16
m1 = 0.0436 | 999.99 | 998.77 | 997.24 | 995.39

CCCCCCCCCCCC[n+]1ccn(CC)c1.[Br-] [3-dodecyl-1-ethyl-1H-imidazolium bromide] + O
mass density [kg/m3], [2]
Settings | m1 = 0.0061 | m1 = 0.0074 | m1 = 0.0109 | m1 = 0.015 | m1 = 0.021 | m1 = 0.0257 | m1 = 0.0362 | m1 = 0.0521
293.15 K | 998.38 | 998.42 | 998.52 | 998.64 | 998.81 | 998.94 | 999.24 | 999.68
298.15 K | 997.16 | 997.19 | 997.27 | 997.38 | 997.53 | 997.65 | 997.91 | 998.31
303.15 K | 995.65 | 995.68 | 995.73 | 995.83 | 995.99 | 996.12 | 996.37 | 996.72
